Eight molecules from patent US5202315A, “Cephalosporin compounds” (Lucky, Ltd., priority 1989, dated 1993) can be followed below.

One series deals with Pseudomonas. Put plainly: Antibacterial activity. The conditions noted are these: statement in words. The format is cell-based.
In another series the test system is Klebsiella pneumoniae. As to the kind of experiment: Antibacterial activity against clinically isolated strains, MIC. It is filed as cell-based. The settings on record: 10 clinical isolates, broth microdilution test; for MIC90: read-out: MIC 90%. For orientation: Broth dilution looks for growth in wells or tubes with falling amounts of substance.
Series [1] concerns Staphylococcus aureus methicillin resistant. Described as above. The settings on record: methicillin resistant, 7 clinical isolates, broth microdilution test; for MIC90: read-out: MIC 90%. It is filed as cell-based.
Series [2] in a line: In-vivo absorbency (plasma concentrations & pharmacokinetic parameters). Set-up: species or system SD rat (male). The conditions noted are these: plasma, SD male rat, iv 20 mg/kg; for concentration at 1 h: 60 min; for concentration at 1 h / concentration at 2 h: read-out: Plasma Conc.; for concentration at 2 h: 120 min; for AUC / half-life: two compartment model; for half-life: rat, iv, 20 mg/kg. The text has this: The blood samples from the femoral vein of the rats were taken every hour after administration, and analyzed by bio-assay(agar well method).
Tested animal: SD male Rat (220~340 g)

Series [3] deals with Streptococcus faecalis ATCC 29212. As to the kind of experiment: Antibacterial activity, MIC. It is filed as cell-based. The settings on record: Enterococcus faecalis, ATCC29212; ATCC 29212; agar two-fold dilution, 37° C., 20 hours; read-out: MIC. The gist of the method:
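The compound is dispersed into Mueller-Hinton agar across a two-fold dilution series. Each strain is applied as 2 μl of a 10^7 CFU/ml suspension and grown 20 hours at 37 °C.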

Values after ≈ are worked out from the molar mass of the structure shown. Read-outs that look alike come from different tables or passages of the source.

As usually defined, the MIC50 is an inhibitory concentration at the 50% level, which refers to growth in some studies and to a panel of isolates in others. Lower therefore signals higher susceptibility. One may read the AUC as the area under the concentration-time curve, a measure of exposure. A low value points to less exposure. The MIC is the lowest concentration that inhibits growth of the organism.

Take `C[n+]1c(N)cc(N)nc1SCC1=C(C(=O)[O-])N2C(=O)C(NC(=O)/C(=N\OC(C)(C)C(=O)O)c3csc(N)n3)[C@H]2SC1` (stereo partly drawn) [Compound I-1, 7-[(Z)-2-(2-aminothiazol-4-yl)-2-(2-carboxyprop-2-oxyimino)acetamido]-3-(4,6-diamino-1-methylpyrimidinium-2-yl) thiomethyl-3-cephem-4-carboxylate]: in the series on Pseudomonas, the “antibacterial activities, especially against Pseudomonas” value is listed as “excellent”. Also, in the series with Klebsiella pneumoniae, the MIC50 worked out at 0.063 µg/mL (≈ 0.101 µM) and the MIC90 was 0.13 µg/mL (≈ 0.208 µM). In series [1], the MIC50 is more than 128 µg/mL and the MIC90 is more than 128 µg/mL. In series [2], the concentration at 1 h was determined as 7700 ng/mL, the concentration at 2 h was 1800 ng/mL and the AUC was 35300 ng·h/mL. Further, in series [2] (read-out: T1/2 (α)), the half-life was determined as 3 min. Moreover, the half-life in series [2] (read-out: T1/2 (β)) worked out at 26 min.

`C[n+]1c(N)cc(N)nc1SCC1=C(C(=O)[O-])N2C(=O)C(NC(=O)/C(=N\OCC(=O)O)c3csc(N)n3)C2SC1` (stereo not drawn) [Compound I-7]: in the series with Klebsiella pneumoniae, the MIC50 was 0.016 µg/mL (≈ 0.0269 µM) and the MIC90 was 0.031 µg/mL (≈ 0.052 µM). Further, the MIC in series [3] is more than 128 µg/mL. In series [1], the MIC was more than 32 µg/mL, the MIC50 was more than 32 µg/mL and the MIC90 was more than 32 µg/mL. In addition, in series [2], the concentration at 1 h came out at 8100 ng/mL, the concentration at 2 h worked out at 1900 ng/mL and the AUC was 35700 ng·h/mL. The half-life in series [2] (read-out: T1/2 (α)) was found to be 2 min. The half-life in series [2] (read-out: T1/2 (β)) is 26 min.

With `CCC[n+]1c(N)cc(N)nc1SCC1=C(C(=O)[O-])N2C(=O)C(NC(=O)/C(=N\OC(C)C(=O)O)c3csc(N)n3)C2SC1` (stereo not drawn) [Compound I-45], in the series on Klebsiella pneumoniae, the MIC50 was determined as 0.13 µg/mL (≈ 0.204 µM) and the MIC90 amounted to 0.13 µg/mL (≈ 0.204 µM). For the same molecule, the MIC in series [3] is more than 128 µg/mL. In addition, in series [1], the MIC50 is more than 128 µg/mL and the MIC90 is more than 128 µg/mL. Moreover, in series [2], the concentration at 1 h amounted to 11000 ng/mL, the concentration at 2 h was 3600 ng/mL and the AUC is 42900 ng·h/mL. The half-life in series [2] (read-out: T1/2 (α)) is 4 min. Further, in series [2] (read-out: T1/2 (β)), the half-life amounted to 38 min.

As for `CC(O/N=C(\C(=O)NC1C(=O)N2C(C(=O)[O-])=C(CSc3nc(N)cc(N)[n+]3C)CSC12)c1csc(N)n1)C(=O)O` (stereo not drawn) [Compound I-4], in the series on Klebsiella pneumoniae, the MIC50 came to 0.031 µg/mL (≈ 0.0508 µM) and the MIC90 was determined as 0.13 µg/mL (≈ 0.213 µM). Also, in series [1], the MIC is more than 32 µg/mL, the MIC50 is more than 32 µg/mL and the MIC90 was more than 32 µg/mL. Moreover, in series [2], the concentration at 1 h came to 2600 ng/mL, the concentration at 2 h amounted to 400 ng/mL and the AUC is 18600 ng·h/mL. The half-life in series [2] (read-out: T1/2 (α)) was determined as 2 min. For the same molecule, the half-life in series [2] (read-out: T1/2 (β)) came to 26 min.

`CCO/N=C(\C(=O)NC1C(=O)N2C(C(=O)[O-])=C(CSc3nc(N)cc(N)[n+]3N)CSC12)c1csc(N)n1` (stereo not drawn) [Compound I-16]: in the series on Klebsiella pneumoniae, the MIC50 worked out at 0.13 µg/mL (≈ 0.229 µM) and the MIC90 was 0.13 µg/mL (≈ 0.229 µM). In addition, in series [3], the minimum inhibitory concentration (MIC) is 32 µg/mL (≈ 56.5 µM). For the same molecule, in series [1], the MIC50 was more than 32 µg/mL and the MIC90 was more than 32 µg/mL. Further, in series [2], the concentration at 1 h worked out at 8800 ng/mL, the concentration at 2 h was determined as 1900 ng/mL and the AUC was 38400 ng·h/mL. Besides, the half-life in series [2] (read-out: T1/2 (α)) is 4 min. In addition, the half-life in series [2] (read-out: T1/2 (β)) is 24 min.

With `CC[n+]1c(N)cc(N)nc1SCC1=C(C(=O)[O-])N2C(=O)C(NC(=O)/C(=N\OC(C)(C)C(=O)O)c3csc(N)n3)C2SC1` (stereo not drawn) [Compound I-2], in the series on Klebsiella pneumoniae, the MIC50 was determined as 0.13 µg/mL (≈ 0.204 µM) and the MIC90 was 0.13 µg/mL (≈ 0.204 µM). Moreover, in series [1], the MIC50 was more than 128 µg/mL and the MIC90 was more than 128 µg/mL. Moreover, in series [2], the concentration at 1 h amounted to 2600 ng/mL, the concentration at 2 h amounted to 400 ng/mL and the AUC is 11400 ng·h/mL. Moreover, the half-life in series [2] (read-out: T1/2 (α)) came out at 2 min. For the same molecule, the half-life in series [2] (read-out: T1/2 (β)) stood at 23 min.

For `CC[n+]1c(N)cc(N)nc1SCC1=C(C(=O)[O-])N2C(=O)C(NC(=O)/C(=N\OC(C)C(=O)O)c3csc(N)n3)C2SC1` (stereo not drawn) [Compound I-5], in the series on Klebsiella pneumoniae, the MIC50 worked out at 0.063 µg/mL (≈ 0.101 µM) and the MIC90 stood at 0.25 µg/mL (≈ 0.401 µM). In series [1], the MIC50 is more than 128 µg/mL and the MIC90 is more than 128 µg/mL. Further, in series [2], the concentration at 1 h was 9700 ng/mL, the concentration at 2 h was 3000 ng/mL and the AUC was 39000 ng·h/mL. Besides, the half-life in series [2] (read-out: T1/2 (α)) was 5 min. Further, in series [2] (read-out: T1/2 (β)), the half-life amounted to 36 min.

Take `Cc1c(N)nc(SCC2=C(C(=O)[O-])N3C(=O)C(NC(=O)/C(=N\OC(C)(C)C(=O)O)c4csc(N)n4)C3SC2)[n+](C)c1N` (stereo not drawn) [Compound I-30]: in the series on Klebsiella pneumoniae, the MIC50 worked out at 0.13 µg/mL (≈ 0.204 µM) and the MIC90 came to 0.25 µg/mL (≈ 0.392 µM). Also, in series [1], the MIC50 is more than 128 µg/mL and the MIC90 was more than 128 µg/mL. Moreover, in series [2], the concentration at 1 h is 9600 ng/mL, the concentration at 2 h amounted to 2700 ng/mL and the AUC was 41800 ng·h/mL. In addition, the half-life in series [2] (read-out: T1/2 (α)) was 4 min. For the same molecule, the half-life in series [2] (read-out: T1/2 (β)) turned out to be 30 min.
